# Experimental data taken from patent publication US20220218835A1, “COMBINATION THERAPY” (priority 2019, published 2022).
# System: MM1S tumours
# Assay: MM1S xenograft mouse model
# Assay type: in vivo, CB17 SCID mice
# Description: A CB17 SCID mice (n=7 each group) with palpable MM1S tumour implants were randomized and treated with control vehicle, a single dose of M2 (0.4 mg/kg), six doses of btz (0.4 mg/kg), or combination of M2 and btz (M2+btz) for 2 weeks. […] D Tumour tissue sections from each group were immunohistochemically analyzed for Ki-67 (original magnification, ×400). […] Tumours were removed at the same treatment day from representative mice.
# CB-17 SCID-mice were subcutaneously inoculated with 5.0×106 MM.1S cells in 100 μl of serum-free RPMI 1640 medium. When tumours were measurable approximately 3 weeks after MM-cell injection, mice (8 mice/group) were randomized and treated with vehicle alone, M2, btz, or M2 with btz. Tumour size was measured every third day in 2 dimensions using calipers, and tumour volume was calculated using the following formula: V=0.5a×b2, where “a” and “b” are the long and short diameter of the tumour, respectively. Animals were sacrificed when their tumours reached 2 cm^3.
# Following 3d-treatment, tumour from each group was harvested and cell lysates were made for immunoblotting. […] Immunohistochemical images were taken on Zeiss Inverted Fluorescence Microscope for Ki67. […]
# In vivo efficacy of sub-optimal doses M2 with btz was next evaluated in the MM1S xenograft mouse model. […]
smiles,measurement,setting,value
"CC(C)C[C@H](NC(=O)[C@H](Cc1ccccc1)NC(=O)c1cnccn1)B(O)O [btz, Bortezomib]",MM1S tumour growth,"24d after treatment, single dose M2, 6 doses btz (0.4 mg/kg)",significantly delays
same,median overall survival,"Kaplan-Meier, follow-up 177 d",35 days
